From patent US8772268B2, “Bisphosphonamidate prodrugs and uses thereof” (The Johns Hopkins University, priority 2010, dated 2014)
Where two headings read alike, the source gives them in different places.

Assays:
SF-539 = assay: NCI-60 DTP Human Tumor Cell Line Screen; assay type: cell-based; settings: SF-539, CNS Cancer, 48 h
MOLT-4 = assay: NCI-60 DTP Human Tumor Cell Line Screen; assay type: cell-based; settings: MOLT-4, Leukemia, 48 h
NCI-H226 = assay: NCI-60 DTP Human Tumor Cell Line Screen; assay type: cell-based; settings: NCI-H226, Non-Small Cell Lung Cancer, 48 h
A549/ATCC = assay: NCI-60 DTP Human Tumor Cell Line Screen; assay type: cell-based; settings: Non-Small Cell Lung Cancer, 48 h
HS 578T = assay: NCI-60 DTP Human Tumor Cell Line Screen; assay type: cell-based; settings: Breast Cancer, 48 h
HT29 = assay: NCI-60 DTP Human Tumor Cell Line Screen; assay type: cell-based; settings: HT29, Colon Cancer, 48 h
A549 NSCLC cells = assay: Trypan blue cell count assay, A549; settings: for EC50: read-out: EC50 (decreased cell number by 50% compared to control), A549, trypan blue
Description: A549 NSCLC cells were plated at 1.7×10^4 cells per well in flat bottom 12-well plates. Cells were dosed as described above. At 24, 48 or 72 hours following drug treatment, the media was collected, and the cells were washed with 200 μL PBS. Each well was trypsinized with 200 μL trypsin for 3-5 min. The trypsin reaction was quenched with an equal volume of media. All supernatants and washes were combined and spun at 1,500 rpm for 5 min. Supernatant was decanted, and the cells were resuspended in 200 μL media. The cells were diluted 1:1 in 0.04% trypan blue and counted using a cytometer. The absolute number of cells was determined at each drug concentration. The cell number for each concentration was converted to percent of control for each time point, and plotted using GraphPad Prism 4.0. The EC50 was calculated as the concentration of drug that caused a 50% decrease in number of cells compared to control.
The number of viable cells at each dose was determined at 0, 24, 48 and 72 hours following drug treatment and plotted as a percent of control (FIG. 6A).

HCT-116 = assay: NCI-60 DTP Human Tumor Cell Line Screen; assay type: cell-based; settings: HCT-116, Colon Cancer, 48 h
KM12 = assay: NCI-60 DTP Human Tumor Cell Line Screen; assay type: cell-based; settings: KM12, Colon Cancer, 48 h
UACC-257 = assay: NCI-60 DTP Human Tumor Cell Line Screen; assay type: cell-based; settings: UACC-257, Melanoma, 48 h
A498 = assay: NCI-60 DTP Human Tumor Cell Line Screen; assay type: cell-based; settings: A498, Renal Cancer, 48 h
PC-3 = assay: NCI-60 DTP Human Tumor Cell Line Screen; assay type: cell-based; settings: PC-3, Prostate Cancer, 48 h
OVCAR-4 = assay: NCI-60 DTP Human Tumor Cell Line Screen; assay type: cell-based; settings: OVCAR-4, Ovarian Cancer, 48 h
CAKI-1 = assay: NCI-60 DTP Human Tumor Cell Line Screen; assay type: cell-based; settings: CAKI-1, Renal Cancer, 48 h
CCRF-CEM = assay: NCI-60 DTP Human Tumor Cell Line Screen; assay type: cell-based; settings: Leukemia, 48 h
OPVCAR-5 = assay: NCI-60 DTP Human Tumor Cell Line Screen; assay type: cell-based; settings: OPVCAR-5, Ovarian Cancer, 48 h
NCI-H460 = assay: NCI-60 DTP Human Tumor Cell Line Screen; assay type: cell-based; settings: NCI-H460, Non-Small Cell Lung Cancer, 48 h
LOX IMVI = assay: NCI-60 DTP Human Tumor Cell Line Screen; assay type: cell-based; settings: Melanoma, 48 h
SK-MEL-2 = assay: NCI-60 DTP Human Tumor Cell Line Screen; assay type: cell-based; settings: SK-MEL-2, Melanoma, 48 h
HOP-62 = assay: NCI-60 DTP Human Tumor Cell Line Screen; assay type: cell-based; settings: HOP-62, Non-Small Cell Lung Cancer, 48 h
HCC-2998 = assay: NCI-60 DTP Human Tumor Cell Line Screen; assay type: cell-based; settings: HCC-2998, Colon Cancer, 48 h
SR = assay: NCI-60 DTP Human Tumor Cell Line Screen; assay type: cell-based; settings: Leukemia, 48 h
U251 = assay: NCI-60 DTP Human Tumor Cell Line Screen; assay type: cell-based; settings: U251, CNS Cancer, 48 h
HCT-15 = assay: NCI-60 DTP Human Tumor Cell Line Screen; assay type: cell-based; settings: HCT-15, Colon Cancer, 48 h
786-0 = assay: NCI-60 DTP Human Tumor Cell Line Screen; assay type: cell-based; settings: 786-0, Renal Cancer, 48 h

Work on `CN(CCCCCl)P(=O)(OCc1ccc([N+](=O)[O-])cc1)C(Cl)(Cl)P(=O)(OCc1ccc([N+](=O)[O-])cc1)N(C)CCCCCl` (stereo not drawn) [compound 14] yielded a Log10GI50 (SF-539) of −5.44, a Log10LC50 (SF-539) greater than −4.00 and a Log10TGI (SF-539) greater than −4.00. The Log10GI50 (MOLT-4) was −5.53, the Log10LC50 (MOLT-4) was greater than −4.00 and the Log10TGI (MOLT-4) was −5.04. It also gave a Log10GI50 (NCI-H226) of −5.52, a Log10LC50 (NCI-H226) greater than −4.00 and a Log10TGI (NCI-H226) greater than −4.00. It also gave a Log10GI50 (A549/ATCC) of −5.37, a Log10LC50 (A549/ATCC) greater than −4.00 and a Log10TGI (A549/ATCC) greater than −4.00. It also gave a Log10GI50 (HS 578T) of −5.53, a Log10LC50 (HS 578T) greater than −4.00 and a Log10TGI (HS 578T) of −5.04. It also gave a Log10GI50 (HT29) of −5.48, a Log10LC50 (HT29) greater than −4.00 and a Log10TGI (HT29) of −4.65. The “new growth in fresh media without drug” value (A549 NSCLC cells; 72 h treatment with 30, 100 and 300 μM, then 48 h drug-free) was “No new growth was observed”, the “cell viability reduced by” value (A549 NSCLC cells; A549, 24 h, highest drug concentration tested) was 57% and the “EC50 (trypan blue) fold higher than IC50 (MTS)” value (A549 NSCLC cells; A549, 48 h) was roughly 1.6 fold. For the same compound, the “viability of A549 cells, of control” value (A549 NSCLC cells; higher doses over 24 h) was “above 50%”, the EC50 (A549 NSCLC cells; 48 h) was 19 ± 4 µM and the EC50 (A549 NSCLC cells; 72 h) was 16 ± 1 µM. For the same compound, the Log10GI50 (HCT-116) was −5.58, the Log10LC50 (HCT-116) was greater than −4.00 and the Log10TGI (HCT-116) was greater than −4.00. It also gave a Log10GI50 (KM12) of −5.46, a Log10LC50 (KM12) greater than −4.00 and a Log10TGI (KM12) greater than −4.00. It also gave a Log10GI50 (UACC-257) of −5.56, a Log10LC50 (UACC-257) greater than −4.00 and a Log10TGI (UACC-257) of −5.10. For the same compound, the Log10GI50 (A498) was −5.74, the Log10LC50 (A498) was greater than −4.00 and the Log10TGI (A498) was −5.17. It also gave a Log10GI50 (PC-3) of −5.44, a Log10LC50 (PC-3) greater than −4.00 and a Log10TGI (PC-3) greater than −4.00. The Log10GI50 (OVCAR-4) was −5.54, the Log10LC50 (OVCAR-4) was greater than −4.00 and the Log10TGI (OVCAR-4) was greater than −4.00. It also gave a Log10GI50 (CAKI-1) of −5.54, a Log10LC50 (CAKI-1) greater than −4.00 and a Log10TGI (CAKI-1) greater than −4.00. The Log10GI50 (CCRF-CEM) was −5.50, the Log10LC50 (CCRF-CEM) was greater than −4.00 and the Log10TGI (CCRF-CEM) was greater than −4.00. The Log10GI50 (OPVCAR-5) was −5.45, the Log10LC50 (OPVCAR-5) was greater than −4.00 and the Log10TGI (OPVCAR-5) was greater than −4.00. The Log10GI50 (NCI-H460) was −5.42, the Log10LC50 (NCI-H460) was greater than −4.00 and the Log10TGI (NCI-H460) was greater than −4.00. For the same compound, the Log10GI50 (LOX IMVI) was −5.75, the Log10LC50 (LOX IMVI) was −4.26 and the Log10TGI (LOX IMVI) was −5.33. The Log10GI50 (SK-MEL-2) was −5.60, the Log10LC50 (SK-MEL-2) was greater than −4.00 and the Log10TGI (SK-MEL-2) was −5.18. The Log10GI50 (HOP-62) was greater than −4.00, the Log10LC50 (HOP-62) was greater than −4.00 and the Log10TGI (HOP-62) was greater than −4.00. The Log10GI50 (HCC-2998) was −5.25, the Log10LC50 (HCC-2998) was −4.46 and the Log10TGI (HCC-2998) was greater than −4.00. The Log10GI50 (SR) was −5.43, the Log10LC50 (SR) was greater than −4.00 and the Log10TGI (SR) was greater than −4.00. The Log10GI50 (U251) was −5.45, the Log10LC50 (U251) was greater than −4.00 and the Log10TGI (U251) was greater than −4.00. The Log10GI50 (HCT-15) was −5.41, the Log10LC50 (HCT-15) was greater than −4.00 and the Log10TGI (HCT-15) was greater than −4.00. It also gave a Log10GI50 (786-0) of −5.28, a Log10LC50 (786-0) greater than −4.00 and a Log10TGI (786-0) greater than −4.00.
